Reference: patent US20200017496A1 (priority 2017, published 2020)
Where two headings read alike, the source gives them in different places.

How the values were obtained:
Assay in all cases: MIC of compounds alone and combined with antibacterials, broth microdilution (CLSI)
Assay type in all cases: cell-based
[1] = system: Citrobacter freundii (CFR) isolates; conditions: for MIC: Citrobacter freundii, ATB alone, read-out: MIC
Summary of the method: (§1)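 Inoculum 5·10^5 CFU/mL (final), log phase, ca-MHB; 16-20 h, 35° C, ambient air. MIC = lowest conc. with no visible growth; ATB MIC read at each compound level.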

[2] = system: Enterobacter cloacae (ECL) isolates; conditions: for MIC: Enterobacter cloacae, ATB alone
Summary of the method: as §1

[3] = system: Serratia marcescens (SMA) isolates; conditions: for MIC: Serratia marcescens
Summary of the method: as §1

Compound: CC(C)(O/N=C(\C(=O)N[C@@H]1C(=O)N2C(C(=O)[O-])=C(C[n+]3ccccc3)CS[C@H]12)c1csc(N)n1)C(=O)O [CAZ, Ceftazidime]
- MIC ATB in combination ([1]; CFR UFR83, AF1 @ 4 μg/mL): 32 µg/mL
- MIC ATB in combination ([1]; CFR UFR83, AF1 @ 8 μg/mL): 8 µg/mL
- MIC ATB in combination ([1]; CFR UFR146, AF1 @ 4 μg/mL): 4 µg/mL
- MIC ATB in combination ([1]; CFR UFR146, AF1 @ 8 μg/mL): 2 µg/mL
- MIC ATB in combination ([1]; CFR UFR248, AF1 @ 4 μg/mL): <=0.25 μg/mL
- MIC ATB in combination ([1]; CFR UFR248, AF1 @ 8 μg/mL): <=0.25 μg/mL
- MIC ATB in combination ([1]; CFR UFR249, AF1 @ 4 μg/mL): <=0.25 μg/mL
- MIC ATB in combination ([1]; CFR UFR249, AF1 @ 8 μg/mL): <=0.25 μg/mL
- MIC ATB in combination ([1]; CFR UFR250, AF1 @ 4 μg/mL): 0.5 µg/mL
- MIC ATB in combination ([1]; CFR UFR250, AF1 @ 8 μg/mL): <=0.25 μg/mL
- MIC ([1]; strain CFR UFR11 (TEM-1, OXA-1, OXA-48)): 8 µg/mL
- MIC ([1]; strain CFR UFR146 (TEM-1, KPC-2)): 32 µg/mL
- MIC ATB in combination ([1]; strain CFR UFR253, antibacterial combined with AF1 @ 4 μg/mL): 4 µg/mL
- MIC ATB in combination ([1]; strain CFR UFR253, antibacterial combined with AF1 @ 8 μg/mL): 2 µg/mL
- MIC ATB in combination ([1]; strain CFR UFR254, antibacterial combined with AF1 @ 4 μg/mL): 0.5 µg/mL
- MIC ATB in combination ([1]; strain CFR UFR254, antibacterial combined with AF1 @ 8 μg/mL): <=0.25 μg/mL
- MIC ATB in combination ([2]; ECL 2185D, AF1 @ 8 μg/mL): 4 µg/mL
- MIC ATB in combination ([2]; ECL 190310, AF1 @ 4 μg/mL): 4 µg/mL
- MIC ATB in combination ([2]; ECL 190310, AF1 @ 8 μg/mL): 2 µg/mL
- MIC ATB in combination ([2]; ECL 190408, AF1 @ 4 μg/mL): <=0.25 μg/mL
- MIC ATB in combination ([2]; ECL 190408, AF1 @ 8 μg/mL): <0.25 µg/mL
- MIC ATB in combination ([2]; ECL 200138, AF1 @ 4 μg/mL): 8 µg/mL
- MIC ATB in combination ([2]; ECL 200138, AF1 @ 8 μg/mL): 2 µg/mL
- MIC ATB in combination ([2]; ECL 200322, AF1 @ 4 μg/mL): 0.5 µg/mL
- MIC ATB in combination ([2]; ECL 200322, AF1 @ 8 μg/mL): 0.5 µg/mL
- MIC ATB in combination ([2]; ECL 260033, AF1 @ 4 μg/mL): 8 µg/mL
- MIC ATB in combination ([2]; ECL 260033, AF1 @ 8 μg/mL): <0.25 µg/mL
- MIC ATB in combination ([2]; ECL 260253, AF1 @ 4 μg/mL): 16 µg/mL
- MIC ATB in combination ([2]; ECL 260253, AF1 @ 8 μg/mL): 4 µg/mL
- MIC ATB in combination ([2]; ECL 260323, AF1 @ 8 μg/mL): 32 µg/mL
- MIC ATB in combination ([2]; ECL 260508, AF1 @ 4 μg/mL): 1 µg/mL
- MIC ATB in combination ([2]; ECL 260508, AF1 @ 8 μg/mL): <=0.25 μg/mL
- MIC ATB in combination ([2]; ECL NEM146383, AF1 @ 4 μg/mL): 2 µg/mL
- MIC ATB in combination ([2]; ECL NEM146383, AF1 @ 8 μg/mL): 2 µg/mL
- MIC ATB in combination ([2]; ECL P99, AF1 @ 4 μg/mL): 2 µg/mL
- MIC ATB in combination ([2]; ECL P99, AF1 @ 8 μg/mL): <=0.25 μg/mL
- MIC ATB in combination ([2]; ECL UFR12, AF1 @ 4 μg/mL): 0.5 µg/mL
- MIC ATB in combination ([2]; ECL UFR12, AF1 @ 8 μg/mL): <=0.25 μg/mL
- MIC ATB in combination ([2]; ECL UFR13, AF1 @ 4 μg/mL): 0.5 µg/mL
- MIC ATB in combination ([2]; ECL UFR13, AF1 @ 8 μg/mL): 0.5 µg/mL
- MIC ATB in combination ([2]; ECL UFR14, AF1 @ 4 μg/mL): 2 µg/mL
- MIC ATB in combination ([2]; ECL UFR14, AF1 @ 8 μg/mL): 1 µg/mL
- MIC ATB in combination ([2]; ECL UFR60, AF1 @ 4 μg/mL): 16 µg/mL
- MIC ATB in combination ([2]; ECL UFR60, AF1 @ 8 μg/mL): 4 µg/mL
- MIC ATB in combination ([2]; ECL UFR70, AF1 @ 4 μg/mL): 2 µg/mL
- MIC ATB in combination ([2]; ECL UFR70, AF1 @ 8 μg/mL): 0.5 µg/mL
- MIC ATB in combination ([2]; ECL UFR84, AF1 @ 4 μg/mL): 4 µg/mL
- MIC ATB in combination ([2]; ECL UFR84, AF1 @ 8 μg/mL): 1 µg/mL
- MIC ATB in combination ([2]; ECL UFR85, AF1 @ 4 μg/mL): 1 µg/mL
- MIC ATB in combination ([2]; ECL UFR85, AF1 @ 8 μg/mL): <=0.25 μg/mL
- MIC ATB in combination ([2]; ECL UFR194, AF1 @ 4 μg/mL): 0.5 µg/mL
- MIC ATB in combination ([2]; ECL UFR194, AF1 @ 8 μg/mL): <=0.25 μg/mL
- MIC ATB in combination ([2]; ECL UFR200, AF1 @ 4 μg/mL): 0.5 µg/mL
- MIC ATB in combination ([2]; ECL UFR200, AF1 @ 8 μg/mL): <=0.25 μg/mL
- MIC ([2]; strain ECL UFR198 (TEM-1, SHV-12, CTX-M-15, DHA-1, OXA-1, OXA-48)): > 256 µg/mL
- MIC ([2]; strain ECL 190310 (AmpC)): 256 µg/mL
- MIC ([2]; strain ECL 200138 (AmpC)): > 256 µg/mL
- MIC ([2]; strain ECL 260033 (AmpC)): 512 µg/mL
- MIC ([2]; strain ECL 260323 (AmpC)): > 256 µg/mL
- MIC ([2]; strain ECL UFR12 (CTX-M-9, OXA-48)): 2 µg/mL
- MIC ([2]; strain ECL UFR13 (TEM-1, SHV-12, CTX-M-9, OXA-48)): > 256 µg/mL
- MIC ([2]; strain ECL UFR14 (TEM-1, SHV-12, CTX-M-15, DHA-1, OXA-1, OXA-48)): > 256 µg/mL
- MIC ([2]; strain ECL UFR194 (OXA-48)): 1 µg/mL
- MIC ([2]; strain ECL UFR196 (TEM-1, CTX-M-15, OXA-1, OXA-48)): > 256 µg/mL
- MIC ([2]; strain ECL UFR200 (TEM-1, SHV-12, KPC-2)): > 256 µg/mL
- MIC ATB in combination ([2]; strain ECL UFR195, antibacterial combined with AF1 @ 4 μg/mL): 1 µg/mL
- MIC ATB in combination ([2]; strain ECL UFR195, antibacterial combined with AF1 @ 8 μg/mL): 0.5 µg/mL
- MIC ATB in combination ([2]; strain ECL UFR196, antibacterial combined with AF1 @ 4 μg/mL): 2 µg/mL
- MIC ATB in combination ([2]; strain ECL UFR196, antibacterial combined with AF1 @ 8 μg/mL): 0.5 µg/mL
- MIC ATB in combination ([2]; strain ECL UFR197, antibacterial combined with AF1 @ 4 μg/mL): 1 µg/mL
- MIC ATB in combination ([2]; strain ECL UFR197, antibacterial combined with AF1 @ 8 μg/mL): 0.5 µg/mL
- MIC ATB in combination ([2]; strain ECL UFR198, antibacterial combined with AF1 @ 4 μg/mL): 4 µg/mL
- MIC ATB in combination ([2]; strain ECL UFR198, antibacterial combined with AF1 @ 8 μg/mL): 4 µg/mL
- MIC ATB in combination ([3]; SMA UFR30, AF1 @ 4 μg/mL): <=0.25 μg/mL
- MIC ATB in combination ([3]; SMA UFR30, AF1 @ 8 μg/mL): <=0.25 μg/mL
- MIC ATB in combination ([3]; SMA UFR134, AF1 @ 8 μg/mL): <=0.25 μg/mL
- MIC ATB in combination ([3]; SMA UFR135, AF1 @ 4 μg/mL): 2 µg/mL
- MIC ATB in combination ([3]; SMA UFR135, AF1 @ 8 μg/mL): 1 µg/mL
- MIC ATB in combination ([3]; SMA UFR136, AF1 @ 4 μg/mL): 2 µg/mL
- MIC ATB in combination ([3]; SMA UFR136, AF1 @ 8 μg/mL): 1 µg/mL
- MIC ATB in combination ([3]; SMA UFR137, AF1 @ 4 μg/mL): <=0.25 μg/mL
- MIC ATB in combination ([3]; SMA UFR137, AF1 @ 8 μg/mL): <=0.25 μg/mL
- MIC ATB in combination ([3]; SMA UFR138, AF1 @ 4 μg/mL): <=0.25 μg/mL
- MIC ATB in combination ([3]; SMA UFR138, AF1 @ 8 μg/mL): <=0.25 μg/mL
- MIC ATB in combination ([3]; SMA UFR139, AF1 @ 4 μg/mL): <=0.25 μg/mL
- MIC ATB in combination ([3]; SMA UFR139, AF1 @ 8 μg/mL): <=0.25 μg/mL
- MIC ATB in combination ([3]; SMA UFR141, AF1 @ 8 μg/mL): <=0.25 μg/mL
- MIC ATB in combination ([3]; SMA UFR239, AF1 @ 4 μg/mL): 8 µg/mL
- MIC ATB in combination ([3]; SMA UFR239, AF1 @ 8 μg/mL): 4 µg/mL
- MIC [3]: > 256 µg/mL
- MIC ([3]; strain SMA UFR30 (OXA-405), ATB alone, read-out: MIC): 8 µg/mL
- MIC ([3]; strain SMA UFR134 (TEM-1, BES-1), ATB alone, read-out: MIC): 8 µg/mL
- MIC ([3]; strain SMA UFR135 (TEM-1, KPC-2), ATB alone, read-out: MIC): 32 µg/mL
- MIC ([3]; strain SMA UFR138 (SME-1), ATB alone, read-out: MIC): ≤ 0.25 µg/mL
- MIC ([3]; strain SMA UFR139 (SME-2), ATB alone, read-out: MIC): ≤ 0.25 µg/mL
- MIC ([3]; strain SMA UFR141 (OXA-48), ATB alone, read-out: MIC): 1 µg/mL
- MIC ([3]; strain SMA UFR239 (ESAC), ATB alone, read-out: MIC): 32 µg/mL
- MIC ATB in combination ([3]; strain SMA UFR238, antibacterial combined with AF1 @ 8 μg/mL): <=0.25 μg/mL
